Experimental data reported in patent US9585957B2, “Adenosine receptor agonists and antagonists to modulate T cell responses” (THE JOHNS HOPKINS UNIVERSITY, priority 2007, dated 2017).

What was measured:
[1] = tested on: ERK phosphorylation, jun B, AP-1; test: Western blot for phospho-ERK and jun B, and EMSA for AP-1, after T cell stimulation with or without CGS; format: cell-based, mice
Protocol: For phospho-ERK and total ERK Western blots, splenocytes from 6.5^+ mice were stimulated overnight with 10 ug/mL HA class II peptide then harvested and enriched for CD4^+ T cells. CD4^+ purified T cells were then stimulated in 500 uL with soluble anti-CD3 (10 ug/mL) and soluble anti-CD28 (1:20 dilution).
Nuclear extracts from CD4^+ purified 6.5^+ T cells that were prepared. The AP-1 probe was: 5′-CGCTTGATGACTCAGCCGGAA-3′. The NFkB probe was: 5′-AGTTGAGGGGACTTTCCCAGGC-3′.

[2] = tested on: A.E7 T cells; test: Anergy induction in A.E7 T cells: incubation with APCs, PCC and CGS, then rechallenge without CGS; format: cell-based
Protocol: A.E7 is a clonotypic CD4^+, Th1 T cell clone specific for pigeon cytochrome c (PCC) and is maintained as previously described (Powell et al. J Immunol. 1999; 162:2775-2784).
Studies were conducted to determine the effects of A2a receptor stimulation on T cell function. A.E7 is a clonotypic CD4′, Th1 T cell clone specific for pigeon cytochrome c (PCC) and is maintained as previously described (Powell, J. D., Lerner, C. G. & Schwartz, R. H. Inhibition of cell cycle progression by rapamycin induces T cell clonal anergy even in the presence of costimulation. J Immunol 162, 2775-84 (1999)). A.E7s were rendered anergic with anti-CD3 or by incubation with APC, PCC and […] CGS-21680. For antibody induced anergy, 6-well plates were previously coated with anti-CD3 three hours prior to stimulation and washed with PBS. For mock stimulations, the well was not coated with anti-CD3. A.E7s were incubated in the coated well overnight at 37° C., then harvested and washed extensively and rested (24 hours for CAMP measurement, 4-6 days for proliferation and cytokine production). […] A.E7s were then isolated via a ficoll gradient, washed extensively, and immediately rechallenged for proliferation and cytokine production. To assess proliferation to PCC, T cells were extensively washed and 5×10^6 cells were added to 50×10^4 irradiated BIO.A splenocytes and increasing doses of PCC in triplicate in a 96-well flat-bottomed plate. After 48 hours, cells were pulsed with [^3H] thymidine and harvested 16 hrs later. Tritium incorporation was determined by a Packard Matrix 96 direct beta counter (Packard bioscience). For cytokine production, a 96-well round-bottom plate was preincubated with […] anti-CD3 for 3 hours. […] All conditions were done in triplicate and were cultured overnight. Supernatant was collected and assessed for cytokine levels (eBioscience for IL-2, IFN-y, TNF-a; R&D Systems for GM-CSF) as per manufacturers' instructions. For each sample, multiple dilutions of the supernatant were assayed and concentration was determined based upon the dilution that best fit the most linear aspect of the standard curve. For CD25 measurements, the cells used for cytokine production were stained with anti-CD25, harvested and measured by flow cytometry.
Next, the T cells were isolated and rechallenged with APCs and peptide in the absence of CGS (secondary stimulation).

[3] = tested on: 6.5+ T cells in C3HA mice; test: Survival of C3HA mice after adoptive transfer of 6.5+ T cells (mouse model of autoimmunity); format: in vivo
Protocol: Clonotypic CD4^+ T cells were harvested from 6.5^+ transgenic mice. The unfractionated population was resuspended to contain 1.2×10^6 6.5^+ T cells in 200 uL of HBSS for i.v. injection through the tail vein of C3HA mice. […] The percentage of CD4^+, 6.5^+, Thy 1.1^−, Thy 1.2^− clonotypic T cells was determined by flow cytometric analysis. CD44 level was also analyzed to ensure that these clonotypic T cells were not activated in donor mice and were naive in phenotype. The cells were washed three times with HBSS and the unfractionated population was resuspended to contain the appropriate number of clonotypic T cells in 200 uL of HBSS for i.v. injection through the tail vein of C3HA.
A survival curve was generated from two separate experiments for a total of 17 mice for each condition.

[4] = tested on: 6.5 TCR transgenic T cells; test: Anergy and LAG-3 induction in primary 6.5 TCR transgenic CD4+ T cells incubated with HA and CGS, then rechallenged; format: cell-based, mice
Protocol: Splenocytes and lymphocytes from A2a receptor wt or null 6.5^+ mice (see below) were harvested and enriched for CD4^+ T cells via negative selection with the CD4^+ T cell isolation kit and LS MACs column (all from Miltenyi Biotech, Auburn, Calif.). […] The T cells were rechallenged for 3-4 hours with 100 ug/mL HA class II peptide, GolgiStop (BD PharMingen) and irradiated APCs.
The cells were harvested, mRNA isolated with Trizol and cDNA was generated. RT-PCR was performed as previously described (Safford et al. Nat Immunol. 2005; 6:472-480).
Splenocytes and lymphocytes from A2a receptor wt or null, 6.5^+ mice were harvested and enriched for CD4′ T cells via negative selection with the CD4^+ T cell isolation kit and LS MACs column (all from Miltenyi Biotech, Auburn, Calif.). […] Irradiated splenocytes from mice of the same A2a receptor genotype were used as APCs, at a 10:1 ratio with T cells. After 3 days, the T cells were harvested and isolated via a ficoll gradient, washed extensively and immediately rechallenged for intracellular staining Briefly, the 1×10^5 T cells were stimulated for 3-4 hours with 5×10^5 irradiated A2a receptor wt APCs, […] HA class II peptide and a 1:1000 dilution of GolgiStop (BD PharMingen), in a total volume of […]. After the stimulation, the cells were washed, stained with anti-6.5 and anti-CD4 antibodies, permeablized and fixed, then stained with anti-IFN-y antibody. Finally, the cells were washed and IFN-y production of […], 6.5^+ T cells was analyzed by flow cytometry.

[5] = tested on: 6.5+ T cells in C3HA mice; test: In vivo suppression: second transfer of lethal numbers of clonotypic 6.5+ T cells into surviving C3HA mice; conditions: mice that survived as a result of CGS treatment; no drug at second transfer (FIG. 5d)
Protocol: It has been shown that mice that survive the initial transfer of donor T cells can survive subsequent transfer of higher numbers of clonotypic T cells. To determine if adenosine mediates the formation of T regulatory cells, in vivo, we gave the surviving mice from FIG. 4a a transfer of […] clonotypic T cells 4-6 weeks after the first transfer. No CGS is administered upon the second transfer.
Tests were conducted to determine if the CGS-induced clonotypic regulatory cells could protect the mice upon subsequent rechallenge with a second injection of clonotypic cells. An in vivo suppression assay was performed by adoptively transferring uniformly lethal numbers of clonotypic 6.5^+ T cells (2.5×10^6) into mice that had survived the initial adoptive transfer (and developed regulatory T cells) (FIG. 5d).

CCNC(=O)[C@H]1O[C@@H](n2cnc3c(N)nc(NCCc4ccc(CCC(=O)O)cc4)nc32)[C@H](O)[C@@H]1O [CGS, 2-p-(2-carboxyethyl)phenethyl-amino-5-N-ethyl-carboxamidoadenosine]
ERK phosphorylation ([1]; Signal 1+2, 1 μM CGS (FIG. 3d)): inhibited ERK phosphorylation | jun B expression in the nucleus ([1]; T cell stimulation, 1 μM CGS (FIG. 3e)): reduced jun B expression | AP-1 binding (EMSA) ([1]; T cell stimulation, 1 μM CGS (FIG. 3f)): lowered AP-1 binding | response upon rechallenge after mock induction ([2]; 1 μM CGS during mock induction, no peptide present, rechallenge without CGS (FIG. 2a)): no effect | proliferation upon rechallenge ([2]; 1 μM CGS with peptide during initial stimulation, rechallenge without CGS (FIG. 2b)): reduced proliferation | IFN-γ production upon rechallenge ([2]; 1 μM CGS with peptide during initial stimulation, rechallenge without CGS (FIG. 2c)): reduced | induction of anergy in the presence of exogenous IL-2 ([2]; peptide, exogenous IL-2 and 1 μM CGS during induction (FIGS. 2d and e)): the presence of IL-2 prevented the ability of CGS to induce anergy | effect on mice receiving LAG-3 null T cells ([3]; C3HA mice receiving LAG-3 null T cells, 4 day treatment with CGS (FIG. 5c)): no affect | mice in which death was prevented, Wt T cells ([3]; C3HA mice receiving Wt T cells, 4 day treatment with CGS (FIG. 5c)): 100% | long-term survival of mice ([3]; C3HA mice, lethal dose of 6.5+ T cells, CGS 2.5 mg/kg i.p. twice daily for four days after transfer (FIG. 4a)): 80% | protection of mice given A2a receptor KO T cells ([3]; C3HA recipients given A2a receptor KO 6.5+ T cells, CGS treatment (FIG. 4d)): fails to protect | IFN-γ production upon rechallenge by intracellular staining ([4]; A2a receptor Wt 6.5 T cells, HA with 1 μM CGS during primary stimulation (FIG. 3a)): hyporesponsive upon subsequent stimulation | CGS-induced anergy in A2a receptor null T cells ([4]; A2a receptor null 6.5 T cells, HA with 1 μM CGS (FIG. 3a)): resistant to CGS-induced anergy | LAG-3 expression ([4]; CD4+ 6.5+ primary T cells, irradiated APCs and HA, 1 μM CGS, 3 days, mRNA (FIG. 3b)): increase in LAG-3 expression | induction of LAG-3 with exogenous IL-2 added ([4]; CGS plus exogenous IL-2): abrogated | survival of the second adoptive transfer [5]: 100%
